Reference: patent US20130289023A1, “METHOD FOR TREATING BRAIN TUMOR” (priority 2012, published 2013)
Read-outs that look alike come from different tables or passages of the source.

What was measured:
GBM8401 cells [1] = experiment: MTT cell viability assay in GBM8401; conditions: for cell death: GBM8401, 1 to 10 μM, 72 hr, FIG. 1(B)
Protocol: To examine the cytotoxicity of anti-psychotic drugs on malignant glioma, GBM8401 cells were treated with 21 anti-psychotic drugs at 10 μM, respectively, for 72 hr.

U87MG cells [2] = experiment: Cell viability / cell death in U87MG; type: cell-based; conditions: 1 to 10 μM, 72 hr, FIG. 1(B)
GBM cells = experiment: Autophagy and ER stress markers in GBM cells (western blot); type: cell-based; conditions: for autophagy in GBM cells: GBM8401 and U87MG cells, western blot markers
Protocol: (§1) The cells were lysed in a lysis buffer (50 mM Tris-HCl, pH 7.4, 5 mM MgCl2, 1% Nonidet P-40, 150 mMNaCl, 1 mM phenylmethylsulfonyl fluoride). Total protein was isolated and subjected to SDS polyacrylamide gel electrophoresis and electrotransfered onto PVDF membranes (Millipore). Primary antibodies, including p-mTOR (Ser 2448), mTOR, PI3K (P110α), p-Akt (Ser 473), Akt, p-S6K (Ser 424), S6K, p-AMPK (Thrl72), AMPK, and CASP3, were obtained from Cell Signaling and LC3 was from Abgent, and secondary antibodies for anti-mouse and anti-rabbit horseradish preoxidase (HRP)-conjugation were from Chemicon International. The protein detection was performed with enhanced chemiluminescence (ECL™) method captured by a Luminescence Imaging System (LAS-4000™, Fuji Photo Film Co., Ltd),
(§2) We observed several protein expression changes, primarily involved in autophagic and cell growth related pathway, it was shown that GBM cells are more sensitive to agents that induce autophagy than apoptosis. Thus, we examined the PI3K-Akt-mTORcascade with known roles m regulation of autophagy.

[3] = test system: U87MG sphere cells (cancer stem-like cells)
GBM8401 cells [4] = experiment: Side population assay (flow cytometry) in GBM8401; type: cell-based; conditions: 10 μM, decreased from 1.26%
Protocol: (§3) The cells were detached from the dishes with trypsin-EDTA (Invitrogen), and suspended in a single-cell suspension at 1×10^6 cells/mL in Hank's balanced salt solution (HBSS) supplemented with 3% fetal calf serum and 10 mM Hepes. The cells were then incubated at 37° C. for 90 min with 20 μg/mL Hoechst 33342 (Sigma Chemical, St. Louis, Mo.), either alone or in the presence of 50 μmol/L verapamil (Sigma), an inhibitor of the verapamil-sensitive ABC transporter. After incubation, the cells were centrifuged immediately for 5 min at 300 g and 4° C. and resuspended in ice-cold HBSS, The cells were kept on ice to inhibit efflux of the Hoechst dye, and 1 μg/mL propidium Iodide (BD) was added to discriminate dead cells. Finally, these cells were filtered through a 40 μm cell strainer (BD) to obtain a single-cell suspension. Dual-wavelength analysis and purification were performed on a dual-laser PACS. Vantage SE machine (BD). Hoechst 33342 was excited with a 355 nm UV light and emitted blue fluorescence with a 450/20 band-pass (BP) filter and red fluorescence with a 675 nm edge filter long-pass (EFLP). A 610 nm dichroic mirror short-pass (DMSP) was used to separate the emission wavelengths. Pi-positive (dead) cells were excluded from the analysis.

U87MG cells [5] = experiment: Side population assay (flow cytometry) in U87MG; type: cell-based; conditions: 10 μM, decreased from 1.43%
Protocol: as §3

GBM8401 cells [6] = experiment: Western blot analysis in GBM8401; type: cell-based; conditions: 24 hr
Protocol: as §1, §2
(§4) Pathway analysis of differentially expressed gene signatures obtained from microarray profiling was investigated via Consensus PathDB. Several thioridazine-mediated pathways were highlighted, including pathway in cancer, GPCR signaling, senescence and autophagy, DMA damage response, and G1 to S cell cycle control (FIGS. 4(A) and 4(B)). Because G-protein couple receptors (GPCR) are membrane associated proteins and have been widely recognized as drug targets. Therefore, we tested whether GPCR might be the target of thioridazine.

U87MG cells [7] = experiment: Western blot analysis in U87MG; type: cell-based; conditions: 24 hr
Protocol: as §1, §2, §4

primary GBM spheroids = experiment: Tumor spheroid assay; type: cell-based
Protocol: For the formation of tumor spheroids, cells were cultured in HEScGRO serum-free medium (human) (Chemicon) supplemented with 20 ng/mL Hegf, 10 ng/mL hFGF-b and NeuroCult MS-A proliferation supplements. Cells were seeded at low densities (1000 cells/mL) in 12-well low adhesion plates at 1 mL, per well Spheroids (tight, spherical, non-adherent masses >90 um in diameter) were counted, and at least 50 spheroids per group were measured with an ocular micrometer. For secondary spheroid-forming assays, primary spheroids were dissociated mechanically and processed as in the primary assay. For the quantification of the percentage of spheroid-forming cells, cells were seeded at one cell per well in 96-well plates, […]

U87MG cells [8] = experiment: U87MG subcutaneous tumor in NOD/SCID mice; type: in vivo; conditions: 5 days/week
Protocol: Female NOD/SCID, 4-6 weeks of age were purchased from the National Laboratory Animal Center (NLAC) (Taipei, Taiwan). All protocols were approved by the institutional animal care committee of Taipei Medical University Hospital Mice were inoculated with U87MG cells in the right flank of NOD/SCID mice (1×10^6 cells/100 μL PBS, subcutaneous infection) and divided into control (sham) and thioridazine-treatment groups (5 mg/kg/day, 5 days/week). N=5 in each group. Tumor burden was measured on a weekly basis using a caliper and calculated using the following formula (a×b^2)/2, where a and b represents the long and short axis of the tumor respectively.
By the end of 6 weeks, animals were humanely sacrificed and tumor biopsies were collected.

[9] = U87MG sphere cells, 10 and 20 μM, 24 hr

fluphenazine
cell death (GBM8401 cells [1]): dose-dependent increase in cell death
cell death (U87MG cells [2]): dose-dependent increase in cell death
autophagy in GBM cells (GBM cells): induce autophagye

prochlorperazine
cell viability ([3]; U87MG sphere cells, 10 and 15 μM, 24 hr): significantly reduced

thioridazine
IC50 (GBM8401 cells [1]): < 10 µM
cell death (GBM8401 cells [1]): dose-dependent increase in cell death
cell death (U87MG cells [2]): dose-dependent increase in cell death
cancer stem-like cells population (side population) (GBM8401 cells [4]): 0.03%
cancer stem-like cells population (side population) (U87MG cells [5]): 0.1%
EDNRA, GPR17, GPRC5B (GPCR) expression (GBM8401 cells [6]; GBM8401, 10 μM): down-regulated
LC3-II and phospho-AMPK (THr172) (GBM8401 cells [6]; GBM8401, 5 to 15 μM): up-regulated
PI3K, phospho-Akt(Ser 473), phospho-mTOR(Ser 2448), phospho-S6K (Ser 424) (GBM8401 cells [6]; GBM8401, 5 to 15 μM): down-regulated
EDNRA, GPR17, GPRC5B (GPCR) expression (U87MG cells [7]; 10 μM): down-regulated
LC3-II and phospho-AMPK (THr172) (U87MG cells [7]; 5 to 15 μM): up-regulated
PI3K, phospho-Akt(Ser 473), phospho-mTOR(Ser 2448), phospho-S6K (Ser 424) (U87MG cells [7]; 5 to 15 μM): down-regulated
autophagy in GBM cells (GBM cells): induce autophagye
ER stress: IRE1a and ER stress-associated proteins (Bip and CHOP) (GBM cells; GBM cells): accumulation
formation of primary GBM spheroids (primary GBM spheroids): inhibited
tumor samples (biopsies) compared to control mice (U87MG cells [8]; 5 mg/kg/day, end of 6 weeks): significantly smaller in size and less vascularized
tumor burden compared to vehicle control (U87MG cells [8]; i.p. injection 5 mg/kg/day, NOD-SCID mice with U87MG cells): significantly smaller
cell viability ([3]; 10 µM): 22%
cell viability [3, 9]: significantly reduced

trifluoperazine
cell viability [3, 9]: significantly reduced
